Test results as given in patent publication US7534769B2, “Compositions and methods for enhancing delivery of therapeutic agents to cells” (Canji, Inc., priority 1996, dated 2009).
“Also recorded” adds a separate entry of the source.

Key:
[1] = system: bladder; experiment: Gene transfer activity of water-soluble Syn3 analogs in vivo, whole organ Xgal staining; parameters: species or system rat; settings: for gene transfer activity compared to controls: 1 mg/ml
Protocol: A concentration of 1 mg/ml was chosen for initial testing of both compounds.
The solution of A-TMA was prepared by dissoluting 10 mg of A-TMA into 10 ml Dulbecco's PBS. Glycerol was added to provide a final concentration of 10 mg/ml. All solutions were sterile filtered prior to use (0.2 μm Acrodisc syring filter). The virus (BGCG 70AAB) was diluted 1:10 into either this A-TMA solution, or into Dulbecco's PBS-glycerol prior to administration.
Ten mg of A-HCl was dissoluted into this buffer and sterile filtered prior to use (0.2 μm Acrodisc suring filter). The virus (BGCG 70AAB) was diluted 1:10 into this solution prior to administration. For comparison, the virus diluted into this buffer without A-HCl was also tested.
Female HSD rats were anesthetized using isofluorane. The rats were transuretherally catheterized into the bladder using PE50 tubing lubricated with K-Y jelly. A tie-off was installed on the external urethra to prevent back leakage. Urine, if any, was removed and the bladder was flushed with 0.5 ml PBS and emptied. rAd was diluted to the desired concentration (1:10) and instilled for 45 minutes. The dosing material was removed, noting the return volume. The bladder was flushed with 0.5 ml PBS and emptied. The tie-off and catheter were removed, and the animals were allowed to recover in cages.
After 48 hours, the animals were sacrificed and their bladders inflation fixed with 0.5 ml fixative for 1 hour. The bladders were then rinsed overnight and whole organ Xgal staining was conducted.

[2] = Solubility and dissolution behaviour; type: physicochemical
[3] = system: bladder epithelium; experiment: rAd-βgal gene transfer to bladder epithelium in detergent formulations, Xgal staining score and gross pathology; settings: detergents at their critical micellization concentration
Protocol: rAd-βgal was formulated in different detergents at their critical micellization concentration to evaluate efficiency of gene transfer to the bladder epithelium. Female rats (about 200 g b/w, Harlan Sprague Dawley) were anesthetized with isoflurane and received a single intravesical administration of rAd-βgal (1×10^11 PN/ml) in different detergent formulations (see Table I). Before instillation, bladders were flushed with PBS and then emptied. rAd-βgal was then instilled in a volume of 0.5 ml. The instilled solution was retained in the bladder for 45 minutes. The bladders were then flushed with PBS, and the animals were permitted to recover from the procedure. 48 hours after administration, the rats were sacrificed, the bladders harvested, and fixed in formalin. After fixation, the bladders were opened longitudinally so that the urothelium was exposed to the chromogen (Xgal), that is converted to a blue color, if reporter gene (β-galactosidase) expression is present. The luminal epithelial surface of the whole bladder was photographed an blue staining scored: + (minimal staining), ++ (moderate staining), +++ intense staining covering the whole bladder epithelial surface.
Briefly, in anaesthetized female rats rAd-βgal (1×10^11 PN/ml) was administered into the bladder via an intravesical catheter. rAd-βgal was formulated in different concentrations of Big CHAP (CALBIOCHEM®). A volume of 0.5 ml was injected and remained instilled in the bladder for 45 minutes. The animals were sacrificed 48 hours later, the bladder fixed in 4% formalin/glutaraldehyde, opened longitudinally, and the β-galactosidase enzyme activity measured using Xgal substrate. The intensity of blue staining correlates with the βgal-transgene expression.
Effects of higher recombinant adenovirus concentrations were also tested. Briefly, in anaesthetized female rats different concentrations of rAd-βgal, formulated in 7 mM Big CHAP (CALBIOCHEM®) were administered into the bladder via an intravesical catheter. The animals were sacrificed 48 hours later, the bladder fixed in 4% formalin/glutaraldehyde, opened longitudinally, and Xgal stained.

[4] = system: bladder epithelium; experiment: Effect of Big CHAP sources, purified Big CHAP and impurities on rAd-βgal gene transfer to bladder epithelium; type: in vivo, rat; settings: for rAd mediated gene transfer and expression: Big CHAP at 6 mg/ml; for epithelial gene expression: increasing concentrations of BC (Sigma), 20 mg/ml; for gene transfer and expression: column chromatography purified BC, 30 mg/ml; for cystitis / bladder irritation: Impurity I
Protocol: Alternate commercial sources of Big CHAP (BC) were tested for the ability to enhance rAd (recombinant adenovirus) mediated gene transfer and expression, essentially according to the method described above in Example 8.
The results are depicted in FIG. 17.
rAd-βgal was formulated in 30 mg/ml of the column chromatography purified material of both BCs and gene transfer to the bladder epithelium tested as described above.
Three impurities of BC (CALBIOCHEM®) were detected by TLC (FIG. 15) and isolated by column chromatography for gene transfer studies. Impurity I and a mixture of impurity II and impurity III were diluted in VPBS (0.6 mg/ml or 6 mg/ml) to test their efficiency in improving rAd mediated gene transfer to the bladder epithelium. […] Positive control formulation (BC, CALBIOCHEM®, upper panel, left), and the negative control formulations (BC—CALBIOCHEM®, column chromatography purified and BC—Sigma) were used at a concentration of 6 mg/ml (upper panel, right).
In this experiment, 10 mg/ml of BC (Sigma, FIG. 20 upper middle panel) was reconstituted with Impurity III (upper right panel), impurity II (lower left panel), or synthesized analog of impurity III (lower right panel). rAd-βgal, 1×10^11 PN/ml, was prepared in the spiked formulations and administered intravesically as described above.
Calbiochem Big CHAP was fractionated by column chromatography to obtain essentially pure impurities “1”, “2”, and “3” for biological testing as well as structural analysis.

C[C@H](CCC(=O)NCCCN(CCCN)C(=O)CC[C@@H](C)[C@H]1CC[C@H]2[C@@H]3[C@H](O)C[C@@H]4C[C@H](O)CC[C@]4(C)[C@H]3C[C@H](O)[C@]12C)[C@H]1CC[C@H]2[C@@H]3[C@H](O)C[C@@H]4C[C@H](O)CC[C@]4(C)[C@H]3C[C@H](O)[C@]12C.Cl [A-HCl]
gene transfer activity compared to controls [1]: significantly above those levels obtained by controls
solubility in saline [2]: not completely soluble in saline
pH of solution ([2]; dissolution into dH2O): 4.7

C[C@H](CCC(=O)NCCS(=O)(=O)O)[C@H]1CC[C@H]2[C@@H]3CC[C@@H]4C[C@H](O)CC[C@]4(C)[C@H]3C[C@H](O)[C@]12C [Taurodeoxycholate, reference compound]
gene transfer to the bladder epithelium (Table I) [3]: enhanced gene transfer dramatically

Pluronic F68 [reference compound]
gene transfer to the bladder epithelium (Table I) [3]: did not have similar effects

C[C@H](CCC(=O)NCCC[N+](C)(C)CCCS(=O)(=O)[O-])[C@H]1CC[C@H]2[C@@H]3[C@H](O)C[C@@H]4C[C@H](O)CC[C@]4(C)[C@H]3C[C@H](O)[C@]12C.O [Chaps, 3-[(3-Cholamidopropyl)dimethylammoniol]-1-propanesulfonate hydrate, reference compound]
gene transfer to the bladder epithelium (Table I) [3]: enhanced gene transfer dramatically

C[C@H](CCC(=O)NCCCN(CCC[N+](C)(C)C)C(=O)CC[C@@H](C)[C@H]1CC[C@H]2[C@@H]3[C@H](O)C[C@@H]4C[C@H](O)CC[C@]4(C)[C@H]3C[C@H](O)[C@]12C)[C@H]1CC[C@H]2[C@@H]3[C@H](O)C[C@@H]4C[C@H](O)CC[C@]4(C)[C@H]3C[C@H](O)[C@]12C.[Cl-] [A-TMA]
gene transfer activity compared to controls [1]: significantly above those levels obtained by controls
gene transfer activity ([1]; individual animals, 1 mg/ml in PBS/1% Glycerol (A-TMA) or Buffer D (A-HCl)): + +

C[C@H](CCC(=O)N(CCCNC(=O)[C@H](O)[C@@H](O)[C@H](O)[C@H](O)CO)CCCNC(=O)[C@H](O)[C@@H](O)[C@H](O)[C@H](O)CO)[C@H]1CC[C@H]2[C@@H]3[C@H](O)C[C@@H]4C[C@H](O)CC[C@]4(C)[C@H]3C[C@H](O)[C@]12C [Big CHAP (Sigma), N,N,bis-(3-D-gluconamidopropyl)-cholamide]
gene transfer ([4]; 26 mg/ml): found to enhance gene transfer
rAd mediated gene transfer and expression ([4]; listed as BC—Sigma): did not markedly improve rAd mediated gene transfer
rAd mediated gene transfer and expression ([4]; listed as Sigma Big CHAP): does not enhance gene transfer
epithelial gene expression [4]: enhanced gene transfer at higher concentrations
epithelial gene expression ([4]; listed as Sigma BC): improved epithelial gene expression

C[C@H](CCC(=O)N(CCCNC(=O)[C@H](O)[C@@H](O)[C@H](O)[C@H](O)CO)CCCNC(=O)[C@H](O)[C@@H](O)[C@H](O)[C@H](O)CO)[C@H]1CC[C@H]2[C@@H]3[C@H](O)C[C@@H]4C[C@H](O)CC[C@]4(C)[C@H]3C[C@H](O)[C@]12C [purified Big CHAP (CALBIOCHEM®)]
gene transfer and expression [4]: only slightly enhanced; also recorded: reduced ability to enhance gene transfer

C[C@H](CCC(=O)N(CCCNC(=O)[C@H](O)[C@@H](O)[C@H](O)[C@H](O)CO)CCCNC(=O)[C@H](O)[C@@H](O)[C@H](O)[C@H](O)CO)[C@H]1CC[C@H]2[C@@H]3[C@H](O)C[C@@H]4C[C@H](O)CC[C@]4(C)[C@H]3C[C@H](O)[C@]12C [purified Big CHAP (Sigma)]
gene transfer and expression [4]: reduced ability to enhance gene transfer
gene transfer and expression ([4]; listed as purified Sigma BC): without any effect

COC(=O)CC[C@@H](C)[C@H]1CC[C@H]2[C@@H]3[C@H](O)C[C@@H]4C[C@H](O)CC[C@]4(C)[C@H]3C[C@H](O)[C@]12C [Impurity I]
cystitis / bladder irritation [4]: caused cystitis
cystitis / bladder irritation ([4]; listed as Impurity 1): bladder irritation
β-galactosidase gene expression in the bladder epithelium ([4]; impurities diluted in VPBS, 0.6 mg/ml or 6 mg/ml): did not lead to increased β-galactosidase gene expression

C[C@H](CCC(=O)N(CCCNC(=O)[C@H](O)[C@@H](O)[C@H](O)[C@H](O)CO)CCCNC(=O)[C@H](O)[C@@H](O)[C@H](O)[C@H](O)CO)[C@H]1CC[C@H]2[C@@H]3[C@H](O)C[C@@H]4C[C@H](O)CC[C@]4(C)[C@H]3C[C@H](O)[C@]12C [Big CHAP, N,N,bis-(3-D-gluconamidopropyl)-cholamide, reference compound]
solubility in water / aqueous solutions (in words) [2]: highly water soluble

CCCCCCCCCCCCCC[N+](C)(C)CCCS(=O)(=O)[O-] [Zwittergent ® 3-14, reference compound]
gene transfer to the bladder epithelium (Table I) [3]: enhanced gene transfer dramatically
